In PubChem BioAssay (NCI):
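Dose response: 5 concentrations. Exposure: 48 h. Format: 96-well plates. Endpoint: linear interpolation; highest concentration if not reached. Abbreviation: GI50, concentration required for 50% inhibition of growth. TGI: concentration producing complete growth inhibition.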

Experiments:
Test in all cases: NCI-60 cell line screen, 48 h
MALME-3M melanoma = test system: MALME-3M melanoma
DU-145 prostate = test system: DU-145 prostate
PC-3 prostate = test system: PC-3 prostate
SF-539 CNS = test system: SF-539 CNS
HT29 colon = test system: HT29 colon
SF-295 CNS = test system: SF-295 CNS
SF-268 CNS = test system: SF-268 CNS
RPMI-8226 leukemia = test system: RPMI-8226 leukemia
T-47D breast = test system: T-47D breast
HCC-2998 colon = test system: HCC-2998 colon
ACHN renal = test system: ACHN renal
NCI/ADR-RES ovarian = test system: NCI/ADR-RES ovarian
COLO 205 colon = test system: COLO 205 colon
NCI-H522 lung = test system: NCI-H522 lung
UACC-62 melanoma = test system: UACC-62 melanoma
SK-MEL-5 melanoma = test system: SK-MEL-5 melanoma
A549 NSCLC = test system: A549 NSCLC
A498 renal = test system: A498 renal
SN12C renal = test system: SN12C renal
UO-31 renal = test system: UO-31 renal
NCI-H460 lung = test system: NCI-H460 lung
K-562 leukemia = test system: K-562 leukemia
HS 578T breast = test system: HS 578T breast
IGROV1 ovarian = test system: IGROV1 ovarian
MDA-MB-231 breast = test system: MDA-MB-231 breast
OVCAR-3 ovarian = test system: OVCAR-3 ovarian
HOP-62 NSCLC = test system: HOP-62 NSCLC
OVCAR-8 ovarian = test system: OVCAR-8 ovarian
HOP-92 NSCLC = test system: HOP-92 NSCLC

## CS(=O)(=O)c1nccc(-c2c(-c3ccc(F)c(OCc4ccc(F)cc4)c3)nc3sccn23)n1
MALME-3M melanoma
  TGI: 71 µM
DU-145 prostate
  GI50: 3.33 µM
  TGI: 11.1 µM
PC-3 prostate
  GI50: 17.2 µM
  TGI: 34.9 µM
SF-539 CNS
  GI50: 17.8 µM
  TGI: 36.7 µM
HT29 colon
  GI50: 21.6 µM
  TGI: 61.6 µM
SF-295 CNS
  GI50: 23 µM
  TGI: 52 µM
SF-268 CNS
  GI50: 15.9 µM
  TGI: 32.8 µM
RPMI-8226 leukemia
  GI50: 20 µM
  TGI: 54.7 µM
T-47D breast
  GI50: 11.1 µM
  TGI: 26.2 µM
HCC-2998 colon
  GI50: 14.2 µM
  TGI: 27.9 µM
ACHN renal
  GI50: 16.6 µM
  TGI: 30.9 µM
NCI/ADR-RES ovarian
  GI50: 18 µM
  TGI: 38.7 µM
COLO 205 colon
  GI50: 17.6 µM
  TGI: 34 µM
NCI-H522 lung
  GI50: 13.4 µM
  TGI: 30.3 µM
UACC-62 melanoma
  GI50: 16.3 µM
  TGI: 34.2 µM
SK-MEL-5 melanoma
  GI50: 17.4 µM
  TGI: 33.1 µM
A549 NSCLC
  GI50: 17.7 µM
  TGI: 34.6 µM
A498 renal
  GI50: 13 µM
  TGI: 26 µM
SN12C renal
  GI50: 23.7 µM
  TGI: > 100 µM
UO-31 renal
  GI50: 15.1 µM
  TGI: 36.3 µM
NCI-H460 lung
  GI50: 13.5 µM
  TGI: 27.4 µM
K-562 leukemia
  GI50: 21 µM
  TGI: 72.8 µM
HS 578T breast
  GI50: 21.2 µM
  TGI: 72.2 µM
IGROV1 ovarian
  GI50: 15.5 µM
  TGI: 31.8 µM
MDA-MB-231 breast
  GI50: 18.1 µM
  TGI: 39.4 µM
OVCAR-3 ovarian
  GI50: 13.1 µM
  TGI: 25.8 µM
HOP-62 NSCLC
  GI50: 16.2 µM
  TGI: 30.9 µM
OVCAR-8 ovarian
  GI50: 15 µM
  TGI: 28.3 µM
HOP-92 NSCLC
  GI50: 5.43 µM
  TGI: 21.5 µM
